This is an account of results in patent publication US7989005B2, “Corosolic acid formulation and its application for weight-loss management and blood sugar balance” (Soft Gel Technologies, Inc., priority 2000, dated 2011).

Data set [1] is described as follows: Acute toxicity studies in rats, single oral limit-dose. The format is in vivo. Particulars: single oral limit-dose of 5 g/Kg. The source says:
The Journal of the Philippine Medical Association, 22, #7, 395402, 1940; Garcia, F. Distribution and Deterioration of Insulin-like Principle in Lagerstroemia Speciosa (Banaba). Acta Medica Philippina, 99-104; Garcia, F., and Melencio-Maglalang, P. Application of Banabins (A Plantisul Preparation) and S. B. Menus to Diabetics. The Journal of the Philippine Medical Association, 33, #1, 7-16, 1957; Garcia, F. Criticisms and Answers on Published Articles concerning Banabins or Plantisul Tablets. The Journal of the Philippine Medical Association, 35, #5, 313-319, 1959; Garcia, L., Pojas, F., Castro, I., Venzon, E., Sisson, F. and Capal, T. Pharmaceutico-chemical and Pharmacological Studies on a Crude Drug from Lagerstroemia Speciosa. The Philippine Journal of Science, 116, #4, 361-375, 1987; Scalori V et al., Int. J. Tiss. Reac., 1983, X 2, 95-97).

The subject of data set [2] is Ehrlich Ascites tumor cells. The following applies: in-vitro; cited from earlier work.

Turning to `C[C@H]1[C@H](C)CC[C@]2(C(=O)O)CC[C@]3(C)C(=CC[C@@H]4[C@@]5(C)C[C@@H](O)[C@H](O)C(C)(C)[C@@H]5CC[C@]43C)[C@H]12` [Corosolic acid, 2-a-hydroxyursolic acid], the acute toxicity result in data set [1] is “safe and non-toxic”. Further, the “cellular uptake of glucose” value in data set [2] is recorded as “improves the cellular uptake of glucose”.
